We go through 1 compound from ChEMBL document CHEMBL6092203, “Discovery of Novel PROTAC-Based HPK1 Degraders with High Potency and Selectivity for Cancer Immunotherapy” (J Med Chem, 2024).

The target in data set [1] is Protein cereblon/Mitogen-activated protein kinase kinase kinase kinase 1 (Homo sapiens, UniProt Q92918+Q96SW2). Briefly: PROTAC activity at CRBN/HPK1 in human Jurkat cells assessed as HPK1 degradation at 1 uM pretreated with lenalidomide for 4 hrs followed by compound addition and measured after 24 hrs by Western blotting analysis. The data set is classed as cell-based.

Data set [2] is described as follows: Drug metabolism in human hepatocytes assessed as phase 1 metabolites formation at 10 uM incubated for 120 mins by UHPLC-UV/MS/MS method. The settings on record: 2 h. Format: ADME, cell-based, Hepatocyte.
A short description of data set [3]: Toxicity in Sprague-Dawley rat assessed as no observable adverse effect level measured after 14 days. As to conditions: in vivo, time 14 day.
The next data set addresses Cytochrome P450 3A4 (Homo sapiens, UniProt P08684). Briefly: Inhibition of CYP3A4 in human liver microsomes using midazolam as substrate in presence of NADPH. The data set is classed as ADME, Microsome. (Microsomes from liver hold many membrane-bound enzymes, among them those of drug oxidation.)
A short description of data set [4]: Toxicity in C57BL/6J mouse assessed as change in body weight at 100 mg/kg, po qd measured after 28 days in presence of 5 mg/kg anti-PD1. Format: organism-based. As to conditions: in vivo, 672 h, time 28 day.
In a further data set the target is Cytochrome P450 2C19 (Homo sapiens, UniProt P33261). The data set is described as follows: Inhibition of CYP2C19 in human liver microsomes using S-mephenytoin as substrate in presence of NADPH. The data set is classed as ADME, Microsome.
Data set [5] can be described thus: AUCinfinity in Beagle dog at 1 mg/kg, iv measured upto 24 hrs by LC-MS analysis. Format: ADME, organism-based, Canis lupus familiaris. The settings on record: in vivo.

pIC50: −log10 of the molar value. Active and inactive are the calls of the source. No cut-off for these calls is given here. Some results are limits rather than exact numbers.

Chain of Cytochrome P450 3A4 (P08684 whole entry): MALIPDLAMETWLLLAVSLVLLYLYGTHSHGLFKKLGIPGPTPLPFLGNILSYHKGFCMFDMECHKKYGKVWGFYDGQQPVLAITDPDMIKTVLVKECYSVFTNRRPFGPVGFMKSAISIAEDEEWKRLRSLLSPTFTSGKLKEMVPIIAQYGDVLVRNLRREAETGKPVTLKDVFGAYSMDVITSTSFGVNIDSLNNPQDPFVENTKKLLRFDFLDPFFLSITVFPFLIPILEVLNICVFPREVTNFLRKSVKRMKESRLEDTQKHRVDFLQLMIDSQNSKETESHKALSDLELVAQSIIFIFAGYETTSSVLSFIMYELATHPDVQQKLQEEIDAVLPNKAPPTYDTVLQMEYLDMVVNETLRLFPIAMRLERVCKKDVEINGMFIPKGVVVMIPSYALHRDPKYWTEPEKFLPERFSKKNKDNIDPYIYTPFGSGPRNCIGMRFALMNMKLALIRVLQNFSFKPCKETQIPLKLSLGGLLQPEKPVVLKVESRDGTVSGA
Chain of Protein cereblon/Mitogen-activated protein kinase kinase kinase kinase 1 (Q92918 whole entry, looked up): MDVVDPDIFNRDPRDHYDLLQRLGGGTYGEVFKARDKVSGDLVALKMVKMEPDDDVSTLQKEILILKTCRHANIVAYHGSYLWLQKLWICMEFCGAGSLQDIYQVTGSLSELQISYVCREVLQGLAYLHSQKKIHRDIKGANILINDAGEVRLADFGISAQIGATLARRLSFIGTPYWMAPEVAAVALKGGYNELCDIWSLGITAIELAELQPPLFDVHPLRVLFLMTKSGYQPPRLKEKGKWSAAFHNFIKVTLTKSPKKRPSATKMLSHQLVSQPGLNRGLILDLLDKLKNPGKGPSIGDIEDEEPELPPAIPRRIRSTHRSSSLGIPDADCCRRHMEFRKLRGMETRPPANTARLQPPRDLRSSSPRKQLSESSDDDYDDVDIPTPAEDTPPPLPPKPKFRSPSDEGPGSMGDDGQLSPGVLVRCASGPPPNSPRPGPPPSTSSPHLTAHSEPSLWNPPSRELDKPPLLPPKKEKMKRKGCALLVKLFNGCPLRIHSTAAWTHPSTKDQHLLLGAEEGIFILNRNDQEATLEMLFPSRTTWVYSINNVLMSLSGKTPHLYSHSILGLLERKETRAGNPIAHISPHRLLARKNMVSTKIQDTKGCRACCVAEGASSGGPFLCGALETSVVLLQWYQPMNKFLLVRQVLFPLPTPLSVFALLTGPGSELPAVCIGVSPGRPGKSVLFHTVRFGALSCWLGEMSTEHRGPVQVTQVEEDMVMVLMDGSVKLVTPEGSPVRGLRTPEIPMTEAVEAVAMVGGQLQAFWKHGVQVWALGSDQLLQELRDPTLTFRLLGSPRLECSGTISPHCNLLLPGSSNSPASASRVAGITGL
Chain of Protein cereblon/Mitogen-activated protein kinase kinase kinase kinase 1 (Q96SW2 whole entry, looked up): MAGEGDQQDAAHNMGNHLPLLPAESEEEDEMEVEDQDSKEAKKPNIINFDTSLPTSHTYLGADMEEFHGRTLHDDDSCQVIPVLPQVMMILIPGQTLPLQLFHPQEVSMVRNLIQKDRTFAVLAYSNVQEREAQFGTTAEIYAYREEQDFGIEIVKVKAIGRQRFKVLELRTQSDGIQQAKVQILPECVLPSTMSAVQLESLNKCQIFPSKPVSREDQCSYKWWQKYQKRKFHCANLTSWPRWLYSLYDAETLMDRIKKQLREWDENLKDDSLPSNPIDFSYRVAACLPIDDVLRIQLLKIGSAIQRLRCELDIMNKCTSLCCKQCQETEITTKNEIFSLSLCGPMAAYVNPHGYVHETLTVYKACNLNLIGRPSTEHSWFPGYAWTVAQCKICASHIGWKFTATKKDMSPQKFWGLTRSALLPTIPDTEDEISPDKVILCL
Chain of Cytochrome P450 2C19 (P33261 whole entry): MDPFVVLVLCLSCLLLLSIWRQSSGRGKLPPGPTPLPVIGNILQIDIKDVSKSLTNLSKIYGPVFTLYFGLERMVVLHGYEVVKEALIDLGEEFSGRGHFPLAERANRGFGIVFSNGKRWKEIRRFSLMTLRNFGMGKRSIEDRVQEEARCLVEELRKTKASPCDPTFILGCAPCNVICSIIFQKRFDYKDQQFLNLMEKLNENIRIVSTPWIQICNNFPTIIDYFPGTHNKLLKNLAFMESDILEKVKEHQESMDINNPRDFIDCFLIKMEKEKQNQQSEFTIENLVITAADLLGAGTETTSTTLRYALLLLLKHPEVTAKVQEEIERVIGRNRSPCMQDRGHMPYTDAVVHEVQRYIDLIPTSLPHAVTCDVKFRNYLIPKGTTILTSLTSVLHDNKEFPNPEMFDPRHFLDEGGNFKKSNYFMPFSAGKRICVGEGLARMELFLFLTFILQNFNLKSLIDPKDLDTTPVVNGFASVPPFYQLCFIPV

On to `O=C1CCN(c2cc(C(=O)N3CCC(CC4CCN(c5ccc(-c6cnc7[nH]cc(-c8cnn(CC(F)(F)F)c8)c7n6)cn5)CC4)CC3)ccc2Cl)C(=O)N1`, for which, in data set [1], the result was inactive. The Drug metabolism result in data set [2] is listed as “metabolite_detected”. For the same compound, the NOAEL at 336 h in data set [3] was found to be 100 mg/kg/day. For the same compound, the pIC50 at Cytochrome P450 3A4 and at Cytochrome P450 2C19 was less than 5.00 in each case. For the same compound, the Activity result in data set [4] was “Non-toxic”. In data set [5], this compound had a total exposure AUC(0-inf) of 996 ng·h/mL.

The NOAEL is the highest dose or exposure tested at which no adverse effect was seen. For orientation: pIC50 means the IC50 on a negative log10 scale, so that one unit is a factor of ten. A word on the AUC(0-inf): it is total exposure, with the tail of the curve extrapolated. A higher AUC(0-inf) goes with high exposure.
